# Where “and” joins values, the source holds several entries; their conditions need not be identical. Identical values can stand only once.
# Experiments:
# normotensive rats = assay: Blood pressure measurement in normotensive anesthetized rats; assay type: in vivo, Wistar rats; details: for DBP Mean / SBP Mean / DBP (individual animals) / SBP (individual animals): 10 mg/kg i.p.
# Description: Male Wistar normotensive rats were anesthetized with thiopental (50–75 mg/kg, i.p.). The right carotid artery was cannulated with a polyethylene tube filled with heparin in saline to facilitate pressure measurement using the Datamax apparatus (Columbus Instruments, Columbus, Ohio, USA). The studied compounds were administered after a 15-min stabilization period.
# human serotonin 5-HT1AR = target: T1, human serotonin 5-HT1AR (Homo sapiens, UniProt P08908); assay: cAMP inhibition (LANCE Ultra cAMP, forskolin-stimulated CHO-K1 cells)
# T1 sequence (P08908 1-422): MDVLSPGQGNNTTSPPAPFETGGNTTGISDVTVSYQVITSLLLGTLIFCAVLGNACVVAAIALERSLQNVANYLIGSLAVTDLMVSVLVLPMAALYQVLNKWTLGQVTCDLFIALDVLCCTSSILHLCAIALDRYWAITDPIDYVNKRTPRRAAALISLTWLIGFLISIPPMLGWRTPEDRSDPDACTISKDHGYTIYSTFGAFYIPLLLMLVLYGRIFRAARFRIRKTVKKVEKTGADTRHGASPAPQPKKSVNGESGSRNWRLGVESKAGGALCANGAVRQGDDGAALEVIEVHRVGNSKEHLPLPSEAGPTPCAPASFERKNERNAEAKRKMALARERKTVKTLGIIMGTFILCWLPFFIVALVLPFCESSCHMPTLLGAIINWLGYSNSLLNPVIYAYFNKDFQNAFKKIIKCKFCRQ
# Description: CHO-K1 cell line transfected with 5-HT1A receptor, were commercially obtained from Perkin Elmer (Cat. No. ES-310-C, Lot Number M2W-C1). Cells were cultured according to manufacturer’s instruction.
# The cells were cultured under selective conditions (400 μg/mL Geneticin G418). Thawed cells were resuspended in stimulation buffer (HBSS, 5 mM HEPES, 0.5 IBMX, and 0.1% BSA at pH 7.4) at 2 × 10^5 cells/mL. The same volume (10 μL) of cell suspension was added to tested compounds with 10 μM forskolin. Cell stimulation was performed for 40 min at room temperature. After incubation, cAMP measurements were performed with homogeneous TR-FRET immunoassay using the LANCE Ultra cAMP kit (PerkinElmer, USA) according to the manufacturer’s instruction (PerkinElmer). The TR-FRET signal was read on an EnVision microplate reader (PerkinElmer, USA).
# [1] = Plasma glucose, triglyceride and cholesterol levels after repeated administration; assay type: in vivo, Swiss albino mice; details: mice, AZ-853 0.625, AZ-861 1.25 mg/kg b.w./day
# Description: The Swiss albino mice were used in the experiment. AZ-853 and AZ-861 were injected once daily for 16 consecutive days. On the 1st and 15th day the administration of the compounds, 18-h spontaneous animal activity was registered (see below). FST, as described earlier, was performed on the 14th day just before the next treatment. To ensure that the effects observed in FST are not the result of increased motility of animals, on the 13th day, just before the next administration, the locomotor activity was measured as described earlier, from 2 to 6 min after test start, i.e. in the period identical to the duration of FST. Blood and organ collection was performed on the 17th day at 24 h after the last dose and fasting.
# Blood samples were collected from the Swiss albino mice 24 h after the last administration of the tested compounds or vehicle. To determine glucose, cholesterol and triglyceride levels in the plasma, standard enzymatic spectrophotometric tests (Biomaxima S.A. Lublin, Poland) were used. In the presence of appropriate enzyme, the substrate was converted to a colored compound. Absorbance was measured at a wavelength of 500 nm. To determine alanine aminotransferase (ALAT) or γ-glutamyl transpeptidase (γ-GTP) activities in the plasma, the standard enzymatic spectrophotometric test (Biomaxima S.A.) was used. Absorbance was measured at 340 nm (ALAT) or 405 nm (γ-GTP).
# PDE4B = test system: PDE4B; set-up: method as in PMID 27353547; details: in vitro, bioluminescent detection system; ref [8]; cited from earlier work
# [2] = time 0 min (baseline), 10 mg/kg
smiles,measurement,setting,value
"Cn1c(=O)c2c(nc3n(CCCCN4CCN(c5ccccc5F)CC4)ccn23)n(C)c1=O [AZ-853, 8-(4-(4-(2-fluorophenyl)piperazin-1-yl)butyl)-1,3-dimethyl-1H-imidazo[2,1-f]purine-2,4(3H,8H)-dione]",effect on systolic blood pressure,normotensive rats; 10 mg/kg,did not significantly affect the systolic blood pressure
same,reduction of diastolic blood pressure in relation to the baseline value,normotensive rats; 10 mg/kg,13–15%
same,DBP Mean,normotensive rats; 5 min,88.3 mmHg
same,SBP Mean,normotensive rats; 5 min,131.2 mmHg
same,DBP (individual animals),"normotensive rats; 5 min, 10 mg/kg",85 mmHg and 88 mmHg and 83 mmHg and 95 mmHg and 91 mmHg
same,SBP (individual animals),"normotensive rats; 5 min, 10 mg/kg",143 mmHg and 116 mmHg and 120 mmHg and 123 mmHg and 163 mmHg and 122 mmHg
same,DBP Mean,normotensive rats; 10 min,84.8 mmHg
same,SBP Mean,normotensive rats; 10 min,130.0 mmHg
same,DBP (individual animals),"normotensive rats; 10 min, 10 mg/kg",82 mmHg and 81 mmHg and 85 mmHg and 91 mmHg and 84 mmHg and 86 mmHg
same,SBP (individual animals),"normotensive rats; 10 min, 10 mg/kg",144 mmHg and 112 mmHg and 127 mmHg and 119 mmHg and 162 mmHg and 116 mmHg
same,DBP Mean,normotensive rats; 15 min,83.2 mmHg
same,SBP Mean,normotensive rats; 15 min,128.5 mmHg
same,DBP (individual animals),"normotensive rats; 15 min, 10 mg/kg",80 mmHg and 81 mmHg and 84 mmHg and 88 mmHg and 82 mmHg
same,SBP (individual animals),"normotensive rats; 15 min, 10 mg/kg",140 mmHg and 113 mmHg and 130 mmHg and 116 mmHg and 160 mmHg and 112 mmHg
same,DBP Mean,normotensive rats; 20 min,83.0 mmHg
same,SBP Mean,normotensive rats; 20 min,125.5 mmHg
same,DBP (individual animals),"normotensive rats; 20 min, 10 mg/kg",75 mmHg and 76 mmHg and 85 mmHg and 88 mmHg and 86 mmHg
same,SBP (individual animals),"normotensive rats; 20 min, 10 mg/kg",132 mmHg and 110 mmHg and 128 mmHg and 113 mmHg and 161 mmHg
same,DBP Mean,normotensive rats; 30 min,83.2 mmHg
same,SBP Mean,normotensive rats; 30 min,122.8 mmHg
same,DBP (individual animals),"normotensive rats; 30 min, 10 mg/kg",80 mmHg and 76 mmHg and 84 mmHg and 87 mmHg and 86 mmHg and 85 mmHg
same,SBP (individual animals),"normotensive rats; 30 min, 10 mg/kg",136 mmHg and 109 mmHg and 126 mmHg and 110 mmHg and 160 mmHg and 112 mmHg
same,DBP Mean,normotensive rats; 40 min,82.5 mmHg
same,SBP Mean,normotensive rats; 40 min,126.2 mmHg
same,DBP (individual animals),"normotensive rats; 40 min, 10 mg/kg",80 mmHg and 76 mmHg and 86 mmHg and 88 mmHg and 83 mmHg
same,SBP (individual animals),"normotensive rats; 40 min, 10 mg/kg",138 mmHg and 110 mmHg and 125 mmHg and 111 mmHg and 159 mmHg
same,DBP Mean,normotensive rats; 50 min,83.2 mmHg
same,SBP Mean,normotensive rats; 50 min,125.7 mmHg
same,DBP (individual animals),"normotensive rats; 50 min, 10 mg/kg",83 mmHg and 82 mmHg and 84 mmHg and 86 mmHg and 97 mmHg and 85 mmHg
same,SBP (individual animals),"normotensive rats; 50 min, 10 mg/kg",139 mmHg and 113 mmHg and 119 mmHg and 167 mmHg and 111 mmHg
same,DBP Mean,normotensive rats; 60 min,86.2 mmHg
same,SBP Mean,normotensive rats; 60 min,127.0 mmHg
same,DBP (individual animals),"normotensive rats; 60 min, 10 mg/kg",84 mmHg and 80 mmHg and 83 mmHg and 86 mmHg and 82 mmHg
same,SBP (individual animals),"normotensive rats; 60 min, 10 mg/kg",136 mmHg and 111 mmHg and 116 mmHg and 110 mmHg and 157 mmHg and 107 mmHg
same,DBP Mean,normotensive rats; 70 min,84.7 mmHg
same,SBP Mean,normotensive rats; 70 min,125.3 mmHg
same,DBP (individual animals),"normotensive rats; 70 min, 10 mg/kg",84 mmHg and 85 mmHg and 89 mmHg and 82 mmHg
same,SBP (individual animals),"normotensive rats; 70 min, 10 mg/kg",138 mmHg and 116 mmHg and 120 mmHg and 111 mmHg and 160 mmHg and 107 mmHg
same,DBP Mean,normotensive rats; 80 min,83.2 mmHg
same,SBP Mean,normotensive rats; 80 min,123.2 mmHg
same,DBP (individual animals),"normotensive rats; 80 min, 10 mg/kg",85 mmHg and 80 mmHg and 82 mmHg and 89 mmHg and 81 mmHg
same,SBP (individual animals),"normotensive rats; 80 min, 10 mg/kg",137 mmHg and 112 mmHg and 115 mmHg and 108 mmHg and 160 mmHg and 107 mmHg
same,DBP Mean,normotensive rats; time 0 min (baseline),97.2 mmHg
same,SBP Mean,normotensive rats; time 0 min (baseline),131.0 mmHg
same,DBP (individual animals),normotensive rats; [2],97 mmHg and 98 mmHg and 91 mmHg and 84 mmHg and 100 mmHg and 113 mmHg
same,SBP (individual animals),normotensive rats; [2],129 mmHg and 140 mmHg and 120 mmHg and 119 mmHg and 122 mmHg and 156 mmHg
same,EC50,human serotonin 5-HT1AR,15.8 nM
same,Emax,"human serotonin 5-HT1AR; CHO-K1, read-out: Emax (%) ± SEM, agonist mode",43 ± 0.5%
same,lower efficacy than 5-HT,human serotonin 5-HT1AR; cAMP inhibition,2.3 fold
same,lower potency than 5-HT,human serotonin 5-HT1AR; cAMP inhibition,1.4 fold
same,plasma glucose level vs. control,[1],did not influence the plasma glucose level
same,plasma level of total cholesterol vs. control,[1],increased significantly
same,plasma level of triglycerides vs. control,[1],increased significantly
same,PDE4B inhibitory activity,PDE4B,did not induce PDE4B and PDE10A inhibitory activity

# — article PMC7413516, “Antidepressant-like activity and safety profile evaluation of 1H-imidazo[2,1-f]purine-2,4(3H,8H)-dione derivatives as 5-HT1A receptor partial agonists” (PLoS ONE, 2020)
